From US20230086702A1, “SUBSTITUTED 2-AMINO-PYRAZOLYL-[1,2,4]TRIAZOLO[1,5A]PYRIDINE DERIVATIVES AND USE THEREOF” (The Johns Hopkins University, priority 2019, published 2023)

Experiments:
DLK = target: T1, DLK (Homo sapiens, UniProt Q12852); assay: DLK biochemical assay (TR-FRET, MKK7 phosphorylation); conditions: DLK catalytic domain, MKK7 substrate, 60 μM ATP
T1 construct: 10 nM DLK, catalytic domain, Carna Biosiences; purchased Carna Biosciences ('Carna Biosiences' [sic])
T1 sequence (Q12852 125-366 limits assumed): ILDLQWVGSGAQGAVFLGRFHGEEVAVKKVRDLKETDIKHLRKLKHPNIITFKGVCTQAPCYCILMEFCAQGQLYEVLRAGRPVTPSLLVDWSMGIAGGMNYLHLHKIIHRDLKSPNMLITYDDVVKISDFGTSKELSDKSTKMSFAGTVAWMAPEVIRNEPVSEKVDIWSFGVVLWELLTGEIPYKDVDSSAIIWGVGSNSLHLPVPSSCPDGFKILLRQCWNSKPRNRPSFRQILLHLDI
Procedure, shortened: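 TR-FRET read-out (ratio of 665 nm acceptor to Eu donor channel) tracks MKK7 T275/S277 phosphorylation by DLK, using Eu-labelled anti-phospho-MKK7 and XL665-labelled anti-His on His-MKK7. Reactions were stopped and detected in pH 7.5 Tris buffer containing 100 mM EDTA, 100 mM NaCl, 200 mM KF and 0.01% Tween 20.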

LZK = target: T2, LZK (Homo sapiens, UniProt O43283); assay: LZK biochemical assay (TR-FRET, MKK7 phosphorylation); conditions: LZK catalytic domain, MKK7 substrate, 15 μM ATP
T2 construct: 10 nM LZK, catalytic domain, Carna Biosiences in assay buffer; purchased Carna Biosciences ('Carna Biosiences' [sic])
T2 sequence (O43283 168-409 limits assumed): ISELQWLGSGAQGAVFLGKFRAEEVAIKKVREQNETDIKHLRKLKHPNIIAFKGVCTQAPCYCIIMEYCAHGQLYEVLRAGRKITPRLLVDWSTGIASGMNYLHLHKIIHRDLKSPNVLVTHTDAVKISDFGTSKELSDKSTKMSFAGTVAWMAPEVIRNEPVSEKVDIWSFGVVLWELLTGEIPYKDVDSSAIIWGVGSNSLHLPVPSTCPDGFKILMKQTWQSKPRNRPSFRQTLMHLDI

Compound	IC50 (DLK) [nM]	IC50 (LZK) [nM]
CCC(c1ccc(C(F)(F)F)nc1)n1cc(-c2cc(C(=O)N[C@@H](C)CO)c3nc(N)nn3c2)cn1 (single isomer, unassigned) [Example I-153, 2-Amino-N-[(25)-1-hydroxypropan-2-yl]-6-(1-{1-[6-(trifluoromethyl)pyridin-3-yl]propyl}-1H-pyrazol-4-yl)[1,2,4]triazolo[1,5-a]pyridine-8-carboxamide]	6.2	29
C[C@@H](CO)NC(=O)c1cc(-c2cnn([C@H](c3ccc(C(F)(F)F)nc3)C3CCOCC3)c2)cn2nc(N)nc12 (single isomer, unassigned) [Example I-155, 2-Amino-N-[(25)-1-hydroxypropan-2-yl]-6-(1-{tetrahydro-2H-pyran-4-yl[6-(trifluoromethyl)pyridin-3-yl]methyl}-1H-pyrazol-4-yl)[1,2,4]triazolo[1,5-a]pyridine-8-carboxamide]	0.7	3.9
C[C@@H](CO)NC(=O)c1cc(-c2cnn(C(c3ccc(C(F)(F)F)nc3)C3CCOCC3)c2)cn2nc(N)nc12 (single isomer, unassigned) [Example I-156, 2-Amino-N-[(25)-1-hydroxypropan-2-yl]-6-(1-{tetrahydro-2H-pyran-4-yl[6-(trifluoromethyl)pyridin-3-yl]methyl}-1H-pyrazol-4-yl)[1,2,4]triazolo[1,5-a]pyridine-8-carboxamide]	13	23
CC[C@@H](c1ccc(OC(F)(F)F)nc1)n1cc(-c2cc(C(=O)N[C@@H](C)CO)c3nc(N)nn3c2)cn1 (single isomer, unassigned) [Example I-158, 2-Amino-N-[(25)-1-hydroxypropan-2-yl]-6-(1-{1-[6-(trifluoromethoxy)pyridin-3-yl]propyl}-1H-pyrazol-4-yl)[1,2,4]triazolo[1,5-a]pyridine-8-carboxamide]	0.6	3.4
CCC(c1ccc(OC(F)(F)F)nc1)n1cc(-c2cc(C(=O)N[C@@H](C)CO)c3nc(N)nn3c2)cn1 (single isomer, unassigned) [Example I-159]	6.7	30
CC(C)C(c1ccc(F)cc1)n1cc(-c2cc(C(=O)N[C@@H](C)CO)c3nc(N)nn3c2)cn1 (single isomer, unassigned) [Example I-161]	51	540
CC(C)[C@@H](c1ccc(F)cc1)n1cc(-c2cc(C(=O)N[C@@H](C)CO)c3nc(N)nn3c2)cn1 (single isomer, unassigned) [Example I-162]	1.3	83
CC[C@@H](c1ccc(C(F)(F)F)nc1)n1cc(-c2cc(C(=O)NC(C)(C)CO)c3nc(N)nn3c2)cn1 (single isomer, unassigned) [Example I-164, 2-Amino-N-(1-hydroxy-2-methylpropan-2-yl)-6-(1-{1-[6-(trifluoromethyl)pyridin-3-yl]propyl}-1H-pyrazol-4-yl)[1,2,4]triazolo[1,5-a]pyridine-8-carboxamide]	6.3	52
CCC(c1ccc(C(F)(F)F)nc1)n1cc(-c2cc(C(=O)NC(C)(C)CO)c3nc(N)nn3c2)cn1 (single isomer, unassigned) [Example I-165, 2-Amino-N-(1-hydroxy-2-methylpropan-2-yl)-6-(1-{1-[6-(trifluoromethyl)pyridin-3-yl]propyl}-1H-pyrazol-4-yl)[1,2,4]triazolo[1,5-a]pyridine-8-carboxamide]	64	190
CC(C)(CO)NC(=O)c1cc(-c2cnn(C(c3ccc(C(F)(F)F)nc3)C3CCOCC3)c2)cn2nc(N)nc12 (single isomer, unassigned) [Example I-167, 2-Amino-N-(1-hydroxy-2-methylpropan-2-yl)-6-(1-{tetrahydro-2H-pyran-4-yl[6-(trifluoromethyl)pyridin-3-yl]methyl}-1H-pyrazol-4-yl)[1,2,4]triazolo[1,5-a]pyridine-8-carboxamide]	22	85
CC(C)(CO)NC(=O)c1cc(-c2cnn(C(c3ccc(C(F)(F)F)nc3)C3CCOCC3)c2)cn2nc(N)nc12 (single isomer, unassigned) [Example I-168, 2-Amino-N-(1-hydroxy-2-methylpropan-2-yl)-6-(1-{tetrahydro-2H-pyran-4-yl[6-(trifluoromethyl)pyridin-3-yl]methyl}-1H-pyrazol-4-yl)[1,2,4]triazolo[1,5-a]pyridine-8-carboxamide]	1.5	8.9
CC[C@@H](c1ccc(OC(F)(F)F)nc1)n1cc(-c2cc(C(=O)NC(C)(C)CO)c3nc(N)nn3c2)cn1 (single isomer, unassigned) [Example I-170, 2-Amino-N-(1-hydroxy-2-methylpropan-2-yl)-6-(1-{1-[6-(trifluoromethoxy)pyridin-3-yl]propyl}-1H-pyrazol-4-yl)[1,2,4]triazolo[1,5-a]pyridine-8-carboxamide]	5.5	18
CCC(c1ccc(OC(F)(F)F)nc1)n1cc(-c2cc(C(=O)NC(C)(C)CO)c3nc(N)nn3c2)cn1 (single isomer, unassigned) [Example I-171, 2-Amino-N-(1-hydroxy-2-methylpropan-2-yl)-6-(1-{1-[6-(trifluoromethoxy)pyridin-3-yl]propyl}-1H-pyrazol-4-yl)[1,2,4]triazolo[1,5-a]pyridine-8-carboxamide]	85	150
CC(C)C(c1cncc(Cl)c1)n1cc(-c2cc(C(=O)NC(C)(C)CO)c3nc(N)nn3c2)cn1 (single isomer, unassigned) [Example I-173, 2-Amino-6-{1-[1-(5-chloropyridin-3-yl)-2-methylpropyl]-1H-pyrazol-4-yl}-N-(1-hydroxy-2-methylpropan-2-yl)[1,2,4]triazolo[1,5-a]pyridine-8-carboxamide]	2	49
CC(C)C(c1cncc(Cl)c1)n1cc(-c2cc(C(=O)NC(C)(C)CO)c3nc(N)nn3c2)cn1 (single isomer, unassigned) [Example I-174, 2-Amino-6-{1-[1-(5-chloropyridin-3-yl)-2-methylpropyl]-1H-pyrazol-4-yl}-N-(1-hydroxy-2-methylpropan-2-yl)[1,2,4]triazolo[1,5-a]pyridine-8-carboxamide]	62	690
Nc1nc2c(C(=O)N[C@H]3CCOC3)cc(-c3cnn(Cc4cccc5cn[nH]c45)c3)cn2n1 (single isomer, unassigned) [Example I-175]	3.8	150
Nc1nc2cc(-c3cnn(C4CCOCC4)c3)cc(C(=O)N[C@H]3CCOC3)n2n1 (single isomer, unassigned) [Example I-176]	220	210
CCC(c1ccc(C(F)(F)F)nc1)n1cc(-c2cc(C(=O)N[C@H]3CCOC3)n3nc(N)nc3c2)cn1 (single isomer, unassigned) [Example I-178]	17	64
CCC(c1ccc(C(F)(F)F)nc1)n1cc(-c2cc(C(=O)N[C@H]3CCOC3)n3nc(N)nc3c2)cn1 (single isomer, unassigned) [Example I-179]	1.8	7.9
CC(C)C(c1ccc(C(F)(F)F)nc1)n1cc(-c2cc(C(=O)N[C@H]3CCOC3)n3nc(N)nc3c2)cn1 (single isomer, unassigned) [Example I-181]	2.1	14
CC(C)C(c1ccc(C(F)(F)F)nc1)n1cc(-c2cc(C(=O)N[C@H]3CCOC3)n3nc(N)nc3c2)cn1 (single isomer, unassigned) [Example I-182]	0.3	1.2
Nc1nc2cc(-c3cnn(C(c4ccc(C(F)(F)F)nc4)C4CCOCC4)c3)cc(C(=O)N[C@H]3CCOC3)n2n1 (single isomer, unassigned) [Example I-184]	13	22
Nc1nc2cc(-c3cnn(C(c4ccc(C(F)(F)F)nc4)C4CCOCC4)c3)cc(C(=O)N[C@H]3CCOC3)n2n1 (single isomer, unassigned) [Example I-185]	0.8	2.3
CCC(c1ccc(OCC(F)(F)F)nc1)n1cc(-c2cc(C(=O)N[C@H]3CCOC3)n3nc(N)nc3c2)cn1 (single isomer, unassigned) [Example I-187]	0.8	18
CCC(c1ccc(OCC(F)(F)F)nc1)n1cc(-c2cc(C(=O)N[C@H]3CCOC3)n3nc(N)nc3c2)cn1 (single isomer, unassigned) [Example I-188]	16	190
CC[C@H](C)NC(=O)c1cc(-c2cnn(CC3CC3)c2)cn2nc(N)nc12 [Example I-1]	97	83
CC[C@H](C)NC(=O)c1cc(-c2cnn(C(CC#N)C(F)(F)F)c2)cc2nc(N)nn12 (stereo partly shown) [Example I-2]	36	74
CC[C@H](C)NC(=O)c1cc(-c2cnn(C3CCC(F)(F)CC3)c2)cn2nc(N)nc12 [Example I-3]	66	12
CC[C@H](C)NC(=O)c1cc(-c2cnn(C3CN(C)C3)c2)cn2nc(N)nc12 [Example I-4]	84	26
